Measurements as given in the NIST ThermoML archive (doi:10.1016/j.jct.2016.01.006).
Several values for one entry are separate records, joined by “and”; a condition that tells them apart may be missing. Equal values may be shown once.

Conditions: Crystal, Calculated from knudsen effusion weight loss

COC(=O)c1c[nH]c2ccccc12 [methyl 1H-indole-3-carboxylate]
Conditions	vapor or sublimation pressure
353.17 K	0.000108 kPa and 9.8e-05 kPa and 9.7e-05 kPa
355.12 K	0.00013 kPa and 0.000127 kPa and 0.000122 kPa
357.1 K	0.000154 kPa and 0.000153 kPa and 0.000148 kPa
359.16 K	0.000179 kPa and 0.000181 kPa and 0.000189 kPa
361.11 K	0.000232 kPa and 0.000226 kPa and 0.000234 kPa
363.1 K	0.000283 kPa and 0.000285 kPa and 0.000284 kPa
365.16 K	0.000351 kPa and 0.000347 kPa and 0.000371 kPa
367.12 K	0.000439 kPa and 0.000427 kPa and 0.000452 kPa
369.1 K	0.000528 kPa and 0.000531 kPa and 0.000514 kPa
371.16 K	0.000637 kPa and 0.000644 kPa and 0.000707 kPa
373.09 K	0.000799 kPa and 0.000822 kPa and 0.000792 kPa
375.09 K	0.00096 kPa and 0.000992 kPa and 0.000977 kPa

CCOC(=O)c1cc2ccccc2[nH]1 [ethyl 1H-indole-2-carboxylate]
Conditions	vapor or sublimation pressure
326.18 K	7.9e-05 kPa and 7.4e-05 kPa
328.21 K	0.000101 kPa and 9.8e-05 kPa and 9.1e-05 kPa
330.12 K	0.000123 kPa and 0.000122 kPa and 0.000126 kPa
332.18 K	0.000155 kPa and 0.000154 kPa and 0.000157 kPa
334.22 K	0.000202 kPa and 0.000196 kPa and 0.000203 kPa
336.12 K	0.000256 kPa and 0.000249 kPa and 0.000248 kPa
338.18 K	0.000312 kPa and 0.000322 kPa
340.21 K	0.000399 kPa and 0.000394 kPa and 0.00041 kPa
342.12 K	0.000501 kPa and 0.000503 kPa and 0.000504 kPa
344.16 K	0.000627 kPa and 0.000614 kPa and 0.000659 kPa
346.18 K	0.000808 kPa and 0.000835 kPa and 0.000768 kPa
348.11 K	0.000988 kPa and 0.000995 kPa and 0.000981 kPa
